Data as given in US12168781B2, “Production method for T cells or NK cells, medium for culturing T cells or NK cells, method for culturing T cells or NK cells, method for maintaining undifferentiated state of undifferentiated T cells, and growth-accelerating agent for T cells or NK cells” (KIRIN HOLDINGS KABUSHIKI KAISHA, priority 2018, dated 2024).

Experiments:
CD8 T cells = experiment: Engraftment into mice of CD8 T cells cultured with the compound; assay type: in vivo; conditions: cells cultured 10 days with 1 μM, two weeks after transplantation into NSG mice, FIG. 19(B)
Procedure: The effect of cells cultured with berbamine on engraftment into mice was examined. As a method therefor, CD8 T cells were purified from PBMCs (CTL, Inc.) derived from a healthy subject using CD8 T Cell Isolation Kit, human (Miltenyi, 130-096-495). The purified CD8 T cells (20,000 cells/well) were seeded, and berbamine (BBM) at 1 μM or MilliQ water that is a solvent for the compound as a control was added thereto, and the cells were cultured in the same culture medium by the same stimulation method as in additional Example 6, and the cells cultured for 10 days were used as cells to be transplanted. NSG male mice at 6 to 11 weeks of age (Charles River Japan) were used as experimental animals and transplantation was performed through the tail vein (approximately 4×10^6 cells). Two weeks after the transplantation, the spleen, peripheral blood and bone marrow were collected, and the CD8β and CD45 positive rates were analyzed by FACS. In the FACS, after the spleen and bone marrow were subjected to a homogenization treatment, and the peripheral blood was subjected to a hemolysis treatment, the resulting materials were transferred to a 96-well plate, followed by washing with a staining solution (PBS containing 2% FBS), and then staining with CD8β-PE-cy7 (eBioscience, 25-5273-42) and CD45-APC-Cy7 (BioLegend, 304014). After washing, the cells were resuspended in the staining solution containing PI. An analysis was performed using a BD LSR Fortessa cytometer (BD Bioscience). The positive rate of CD8β(+)CD45(+) cells in the PI-negative cell population analyzed by FlowJo 9 was measured. Note that in a statistical analysis, a Student's t-test was used (*: p<0.05).

T-iPS-T cells = experiment: Number of viable T-iPS-T cells under feeder-free culture (CD3/CD28 Dynabeads, Cell Count Reagent SF, absorbance 450 nm/650 nm); assay type: cell-based, human; conditions: for number of viable cells (OD value): T-iPS-T cells after 1st expansion, DMSO control 0.225 ± 0.017
Procedure: T-iPS-T cells (1,500 cells/well) after 1st expansion were seeded and cultured in RPMI-1640 medium (SIGMA, R8758) supplemented with 15% FBS (CORNING, 35-076-CV, 35076104R), 1% PSG (SIGMA, G1146), PAA (50 μg/mL, Nacalai Tesque, 03420-52), ITS-G, IL-7 (5 ng/mL), IL-12 (50 ng/mL), IL-15 (5 ng/mL), IL-18 (50 ng/mL), IL-21 (20 ng/mL), and z-VAD-fmk (10 μM). The cells were stimulated by adding CD3/CD28 Dynabeads (Gibco, 11131D, the “Dynabeads” is a registered trademark) (4,500 beads/well) thereto, and 1,080 compounds [MedChemExpress, Apoptosis Compound Library (HY-L003), Cell Cycle/DNA Damage Compound Library (HY-L004), JAK/STAT Compound Library (HY-L008), MAPK Compound Library (HY-L010), NF-kappaB Compound Library (HY-L014), PI3K/Akt/mTOR Compound Library (HY-L015), and Wnt/Hedgehog/Notch Compound Library (HY-L020)] were added thereto (one type per well) at a final concentration of 1 μM, and then, the cells were cultured at 37° C. under 5% CO2.
DMSO (0.1%) that is a solvent for the compound was used as a control. After 6 days, the number of viable cells was measured using Cell Count Reagent SF (Nacalai Tesque, 07553) and a microplate reader (SoftMax Pro 5.X, Molecular Devices, 450 nm/650 nm).
A calibration curve for cell number was set as follows. When measuring the number of viable cells, 12-point serial dilution was performed for the same cells as those used in the screening, and the cells were seeded (0 to 1,536,000 cells/well) in RPMI-1640 medium supplemented with 15% FBS, 1% PSG, PAA, ITS-G, IL-7 (5 ng/mL) and IL-15 (5 ng/mL). The number of viable cells was measured together with the screening samples, and a calibration curve for WST-8 assay was formed.
In order to further evaluate the results obtained in Example 4, reproducibility was evaluated. As a method therefor, the same method as in Example 4 was used to carry out culturing and evaluation. As compounds, 20 compounds were selected and used among the compounds used in Example 4 including berbamine, and DMSO (0.1%) that is a solvent for the compound was used as a control. Note that in a statistical analysis, a Student's t-test was used (*: p<0.05).
The effect of a berbamine derivative on the proliferation of T cells was verified. As a method therefor, T-iPS-T cells after 1st expansion were cultured in the same manner as in Example 4, and berbamine (BBM) or each of 13 types of derivatives [BBMD1 to 13, Hebei Sundia MediTech Company Ltd.] was added thereto (one type per well) at a final concentration of 0.1 nM, 1 nM, 10 nM, 100 nM, or 1 μM, and then, the cells were cultured at 37° C. under 5% CO2. DMSO (0.1%) that is a solvent for the compound was used as a control.
After culturing for 6 days, the number of viable cells was measured using Cell Count Reagent SF (Nacalai Tesque, 07553) and a microplate reader (SoftMax Pro 5. X, Molecular Devices, 450 nm/650 nm), and the OD value was used as data. Note that in a statistical analysis, a Student's t-test was used (*: p<0.05). 1.

## COc1cc2c3cc1Oc1c(OC)c(OC)cc4c1[C@@H](Cc1ccc(O)c(c1)Oc1ccc(cc1)C[C@@H]3N(C)CC2)N(C)CC4 [berbamine]
CD8 T cells; bone marrow
  positive rate of CD8β(+)CD45(+) cells (engraftment) compared with cells cultured with MilliQ water: significant engraftment
CD8 T cells; peripheral blood
  positive rate of CD8β(+)CD45(+) cells (engraftment) compared with cells cultured with MilliQ water: significant engraftment
CD8 T cells; spleen
  positive rate of CD8β(+)CD45(+) cells (engraftment) compared with cells cultured with MilliQ water: significant engraftment
T-iPS-T cells; 0.1 nM, 6 days
  number of viable cells (OD value): 0.257 ± 0.018
T-iPS-T cells; 1 nM, 6 days
  number of viable cells (OD value): 0.266 ± 0.024
T-iPS-T cells; 10 nM, 6 days
  number of viable cells (OD value): 0.275 ± 0.019 *
T-iPS-T cells; 100 nM, 6 days
  number of viable cells (OD value): 0.282 ± 0.031 *
T-iPS-T cells; 1 μM, 20 compounds, Student's t-test, FIG. 11
  number of cells compared with DMSO (reproducibility of the screening): significant increase in the number of cells
T-iPS-T cells; 1 μM, 6 days, FIG. 6
  number of viable cells, rank among the 1,080 compounds screened: highest number of viable cells
T-iPS-T cells; 1 μM, 6 days
  number of viable cells (OD value): 0.505 ± 0.034 ***
